Measurements taken from publication PMC5374622, “Morintides: cargo-free chitin-binding peptides from Moringa oleifera” (BMC Plant Biology, 2017).
Positions of bridges follow the written chain, without caps; N, C: chain ends. Non-standard residues stand in square brackets, D forms with d. No end group written: not given here. pGlu = O=C1CC[C@@H](C(=O)O)N1

Tests used:
Vero cells = experiment: Cytotoxicity assay (PrestoBlue cell viability); format: cell-based; conditions: concentrations up to 100 μM (1–100 μM), 24 h, DMEM 10% FBS, absorbance 570 nm
Protocol: The cytotoxic effect of morintide, mO1 (1–100 μM) was tested on Vero cells (5 × 10^4 cells/ml) in Dulbecco’s modified Eagle’s medium (DMEM) supplemented with 10% fetal bovine serum (FBS) and 1% penicillin/streptomycin (PS). Vero cells (ATCC CCL-81) were a kind gift from Dr Liu Ding Xiang (School of Biological Sciences, Nanyang Technological University, Singapore). After 24 h of incubation, 10 μl of PrestoBlue® Cell Viability Reagent (Invitrogen, USA) was added to the wells and incubated at 37 °C for 1 h. After incubation, the absorbance was measured at 570 nm using a microplate reader.

[1] = format: physicochemical
Protocol: Purified mO1 (40 μg) was dissolved in water and incubated at 100 °C for 1 h. A linear peptide RV-14 ([…]) synthesized in our laboratory was used as a control. After incubation, the samples were subjected to RP-UPLC to assess the presence and extent of degradation.

[2] = Chitin binding assay with chitin beads
Protocol: Purified morintide (mO1) was incubated with chitin beads (New England Biolabs, Massachusetts, […]) in chitin binding buffer (140 mM NaCl, 10 mM Tris EDTA 1 mM; pH 8.0; then, 0.1% (v/v) Tween 20 was added) at 4 °C for 4 h. At each time point, the beads were centrifuged at 12,000 g for 1 min and the absorbance of the supernatant was read at 280 nm to assess binding. Elution of the bound peptide was performed using two methods. In the first method, 0.5 M acetic acid and heating at 100 °C for 30 min and 1 h was used, and in the second method, four elution buffers (10 mM Tris, 1 mM EDTA, 0.1% (v/v) Tween 20; pH 8.0) with increasing concentration of sodium chloride (300 mM, 500 mM, 700 mM, and 1 M) were used. Reduced and alkylated mO1 was used as a control. Supernatants were further analyzed by UPLC and MALDI-TOF to assess binding and elution.

[3] = system: Alternaria brassiciola (CICC 2646); experiment: Disc diffusion assay; format: cell-based; conditions: 17.5 to 70 μg mO1 on 6 mm discs, PDA plates, 24 h at 25 °C
Protocol: (§1) The susceptibility of seven fungal strains obtained from the China Center of Industrial Culture Collection (CICC), namely, Curvularia lunata (CICC 40301), Fusarium oxysporum (CICC 2532), Aspergillus niger (CICC 2089), Verticillium dahilae (CICC 2534), Rhizoctonia solani (CICC 40259), Alternaria alternata (CICC 2465) and Alternaria brassiciola (CICC 2646) to mO1 (17.5 to 70 μg) was tested using a disc diffusion assay. Potato dextrose agar (PDA) plates were used to grow C. lunata, R. solani, V. dahilae A. alternata, and A. brassiciola (A. niger was grown on malt extract (ME) agar plates) at 25 °C. When sufficient growth was observed, the mycelia were harvested by punching a hole in the growing fungi and transferring it to a new agar plate. The plate was incubated at 25 °C for 48 h to 72 h to allow formation of a radial mycelial colony. 6 mm discs impregnated with 20 μL of mO1 were placed equidistant (1 cm) from the growing ends of the mycelia and incubated for 24 h at 25 °C. Deionized water was used as a negative control. Formation of arc-shaped inhibition zones indicated susceptibility to mO1.

[4] = system: Alternaria alternata (CICC 2465); experiment: Disc diffusion assay; format: cell-based; conditions: 17.5 to 70 μg mO1 on 6 mm discs, PDA plates, 24 h at 25 °C
Protocol: as §1

[5] = Proteolytic enzyme stability assay, carboxypeptidase A; format: in vitro ADME; conditions: isolated enzyme carboxypeptidase, 50 mM Tris-HCl with 100 mM NaCl pH 7.5, 37 °C, peptide:enzyme 50:1 (w/w), RP-UPLC area under the curve, MALDI-TOF MS, read-out: peptide remained intact after carboxypeptidase A treatment
Protocol: (§2) Purified mO1 was incubated at 37 °C with pepsin or carboxypeptidase A in 100 mM sodium citrate (pH 4.5) or 50 mM Tris–HCl with 100 mM NaCl (pH 7.5) at a final peptide to enzyme ratio (w/w) of 20:1 and 50:1, respectively. At each time point (0, 2, 4, 6 h) 50 μL of the sample was injected into the UPLC system, and the mass of peaks collected were analyzed by MALDI-TOF MS. A linear peptide WV-14 (WRLYRGRLYRRNHV) synthesized in-house was used as a control.

[6] = Proteolytic enzyme stability assay, pepsin; format: in vitro ADME; conditions: isolated enzyme pepsin, 100 mM sodium citrate pH 4.5, 37 °C, peptide:enzyme 20:1 (w/w), RP-UPLC area under the curve, MALDI-TOF MS, read-out: peptide remained intact after pepsin treatment
Protocol: as §2

Substance | cytotoxic effect on Vero cells (Vero cells) | peptide remained intact after heating ([1]; 40 μg in water, 100 °C for 1 h, area under the curve of RP-UPLC chromatograms) | time for elution from chitin beads with 0.5 M acetic acid with heating at 100 °C ([2]; 0.5 M acetic acid, 100 °C, RP-UPLC) [h] | elution from chitin beads with elution buffers with up to 1 M NaCl ([2]; elution buffers 10 mM Tris, 1 mM EDTA, 0.1% Tween 20, pH 8.0 with 300 mM, 500 mM, 700 mM, 1 M NaCl) | time for elution from chitin beads in acidic conditions at high temperature ([2]; legend of Figure S2, acidic conditions at high temperature) [min] | susceptibility (crescent-/arc-shaped inhibition zones) [3] | susceptibility (crescent-/arc-shaped inhibition zones) [4] | remaining at 6 h [5] [%] | remaining at 6 h [6] [%] | peptide degraded on heating [1]
[pGlu]NCGRQAGNRACANQLCCSQYGFCGSTSEYCSRANGCQSNCRG (disulfide 3-18, 12-24, 17-31, 37-41) [mO1] | No significant cytotoxic effect | more than 95% | 1 | could not be eluted | 30 | susceptible | susceptible | > 95 | > 95 | 
RLYRRGRLYRRNHV [RV-14, linear peptide synthesized in the authors' laboratory, control in the thermal stability assay, reference compound] |  |  |  |  |  |  |  |  |  | More than 50%
